{"source": "patent US7368279B2", "about": "“Three dimensional bioengineered smooth muscle tissue and sphincters and methods therefor” (The Regents of The University of Michigan, priority 2004, dated 2008)", "key": {"[1]": {"tested_on": "bioengineered colon smooth muscle rings", "experiment": "Isometric force of bioengineered colon smooth muscle rings", "type": "cell-based, rabbit", "procedure": "To develop a three dimensional physiological model of the smooth muscle cells in vitro, isolated colonic smooth muscle cells were used. Smooth muscle cells isolated from the colon of rabbits were seeded in a fibrin-based tissue construct as described in detail in Example 2. In this construct, the smooth muscle cells migrated and self-assembled in circumferential alignment. As the cells proliferated, the fibrin gel shrunk and contracted around a 5 mm diameter SYLGARD mold, resulting in a 3-D cylindrical ring of colonic tissue (smooth muscle ring). […] Maximal ΔP induced by acetylcholine stimulation was 17.8 μN, resulting in a specific force (sΔP) of […]."}, "[2]": {"tested_on": "association of tropomyosin with HSP27 in sphincteric smooth muscle cells", "experiment": "Immunoprecipitation/immunoblot: acetylcholine-induced association of tropomyosin with HSP27", "type": "cell-based, rat", "conditions": "0.1 μM acetylcholine", "procedure": "Decreased association of actin with myosin and decreased association of tropomyosin with HSP27 in sphincteric smooth muscle cells from old rats (28-33 month old) was observed when compared to adult counterparts (18 months old). Whole cell lysates (WCL) from acetylcholine (0.1 μM) stimulated and unstimulated sphincteric smooth muscle cells of adult and old rats were extracted and immunoprecipitated as described previously (Somara et al, Amer. J. Physiol. 286(6): C1290-1301, 2004). Briefly, actin was immunoprecipited using an anti-actin antibody followed by immunoblotting with an anti-myosin antibody. […] To further investigate phospho-HSP27-induced reinstatement of smooth muscle cell contractile function, sphincter smooth muscle cells isolated from old rats IAS were transfected with phosphomimic-HSP27 as described previously. Whole cells lysates were extracted and immunoprecipitated as described previously (Somara et al, Amer. J. Physiol. 286(6): C1290-1301, 2004)."}, "[3]": {"tested_on": "isolated smooth muscle cells from the rabbit IAS", "experiment": "Acetylcholine-induced contraction of isolated IAS smooth muscle cells (decrease in cell length)", "type": "cell-based", "conditions": "for contraction, percent decrease in cell length from control: 10^−7 M acetylcholine, HEPES buffer; for decrease in cell length: acetylcholine, 0 Ca2+/2 mM EGTA HEPES buffer", "text": "Smooth muscle cells were isolated from the internal anal sphincter (IAS) of New Zealand White rabbits as described previously (Bitar et al., Am J Physiol 260: G537-G542, 1991; Bitar et al., Am J Physiol 242: G400-G407, 1982). Briefly, the IAS, consisting of the most distal 3 mm of the circular muscle layer, ending at the junction of skin and mucosa, was removed by sharp dissection. The sphincter was rapidly cleaned and striped of connective tissue in ice cold carbonated Krebs solution containing 2% penicillin-streptomycin. The tissue was cut into small pieces and transferred to a 100 mm plate containing 15 ml of HEPES buffer (pH 7.4; NaCl (115 mM), KCl (5.7 mM), KH2PO4 (2.0 mM), HEPES (24.6 mM), CaCl2 (1.9 mM), MgCl2 (0.6 mM), glucose (5.6 mM), 0.01% soybean trypsin inhibitor, and 0.184 (wt/vol) DMEM) with 0.1% collagenase type II (Worthington Biochemical Corp., Lakewood, N.J.) for digestion in an incubator (37° C. with 5% CO2) for 1 hour. Fresh HEPES buffer (15 ml) with collagenase was added and the contents of the plate were mechanically dissociated using a 10 ml pipette and incubated for 1 additional hour. After the second digestion period, the cells were collected, centrifuged at 800×g for 10 minutes and the supernatant discarded. The cells were washed (3×) a to ensure removal of excess collagenase and ultimately re-suspended in either HEPES buffer or 0 Ca^2+/2 mM EGTA HEPES buffer (HEPES without CaCl2 and containing 2 mM EGTA). To determine the effect of acetylcholine on contraction of isolated muscle cells, acetylcholine (10^−7 M) was added to a suspension of isolated smooth muscle cells for 30 seconds or 4 minutes with untreated cells as controls. The reaction was stopped and cells were fixed by the addition of 0.1 ml of acrolein at a final concentration of 0.1%. Individual cell lengths were measured by computerized image micrometry (Bitar et al., Am J Physiol 242: G400-G407, 1982. Bitar et al., Science 216: 531-533, 1982). The length of cells in the control state or after addition of acetylcholine was obtained by measuring 30-50 cells encountered randomly in successive microscopic fields from each of three separate experiments. The contractile response is defined as the decrease in the average length of the cells counted and is expressed as the percent change from the control length."}, "bioengineered IAS rings": {"tested_on": "bioengineered IAS rings", "experiment": "Isometric force of bioengineered IAS rings from adult, old and phosphomimic-HSP27 transfected old rat cells", "type": "cell-based", "procedure": "To measure the passive baseline force, the differentiation media in the plate containing the bioengineered sphincter was replaced with 37° C. Krebs solution (NaCl (119 mM), KCl (4.6 mM), NaHCO3 (15 mM), CaCl2 (1.5 mM), MgCl2 (1.2 mM), […], and glucose (11 mM)) and the plate was placed on a heated aluminum platform, which maintained a temperature of 37° C. until the testing was complete. For contractility measurements, one end of the bioengineered sphincter was anchored by a stainless steel pin (10 mm×0.1 mm diameter) to the PDMS substrate within the plate, while another stainless steel pin was bent in the shape of a hook and attached by canning wax to a force transducer (resolution of 1.4 μN and range of 2mN) as previously described (Dennis et al., In Vitro Cellular & Developmental Biology Animal 36: 327-335, 2000, Macpherson et al., J Physiol 500: 523-533, 1997) and as depicted in FIG. 1 (Panels F and G). The bioengineered sphincter was stretched approximately 50% of its resting length using a three-axis micromanipulator. The ring was allowed to sit for 20 minutes in order to reestablish a stable baseline level of force (Pb), which was measured as the average baseline passive force preceding stimulation. All force measurements were collected at 100 samples/second for 60 seconds and recorded using a computer with LabVIEW data acquisition software (National Instruments, Austin, Tex.). A median filter of rank 2 was applied to all raw force data before being stored to minimize digitization noise without causing a phase delay for rapidly changing forces. The peak isometric force (ΔP) was determined by subtracting the Pb from the total force values. Specific force (sΔP) was calculated by dividing ΔP by the CSA. Data analysis was done using LabVIEW and Microsoft Excel software programs. Each measurement was repeated at least three times and the mean value was recorded. Bioengineered sphincter rings using smooth muscle cells isolated from IAS of adult and old rats were generated as described in Example 2 to study the molecular mechanism of aging on sphincteric smooth muscle. […] This corresponds to the previously described acetylcholine-induced contraction of human IAS muscle strips (16, 17, 27). […] Phosphomimic-HSP27 was introduced into the sphincteric smooth muscle cells from old rats. […] To test this hypothesis on a physiological level, bioengineered sphincter rings were made from phosphomimic-HSP27 transfected-IAS smooth muscle cells of old rats and the contractile response was assessed."}}, "data": [{"compound": "CC(=O)OCC[N+](C)(C)C", "note": "[acetylcholine]", "values": [{"measurement": "maximal ΔP induced by acetylcholine stimulation", "setting": "[1]", "value": 17.8, "unit": "μN"}, {"measurement": "acetylcholine-induced association of tropomyosin with HSP27", "setting": "[2]; adult rats, 30 seconds", "value": "218.67±5.48", "unit": "%"}, {"measurement": "acetylcholine-induced association of tropomyosin with HSP27", "setting": "[2]; adult rats, 4 minutes", "value": "268.39±6.38", "unit": "%"}, {"measurement": "acetylcholine-induced association of tropomyosin with HSP27", "setting": "[2]; old rats, 30 sec", "value": "149.93±8.60", "unit": "%"}, {"measurement": "acetylcholine-induced association of tropomyosin with HSP27", "setting": "[2]; old rats, 4 minutes", "value": "223.21±7.46", "unit": "%"}, {"measurement": "contraction, percent decrease in cell length from control", "setting": "[3]; 30 seconds", "value": "28.85±3.20", "unit": "%"}, {"measurement": "contraction, percent decrease in cell length from control", "setting": "[3]; 4 minutes", "value": "27.09±4.43", "unit": "%"}, {"measurement": "decrease in cell length", "setting": "[3]; 30 seconds", "value": "0.5±4.47", "unit": "%"}, {"measurement": "decrease in cell length", "setting": "[3]; 4 minutes", "value": "4±3.91", "unit": "%"}, {"measurement": "maximum force of old rings, fold less than adult rings (FIG. 5 panel B)", "setting": "bioengineered IAS rings; 10^−6 M acetylcholine", "value": "approximately 3 fold"}, {"measurement": "average ΔP / force generated", "setting": "bioengineered IAS rings; adult rat IAS rings, 10^−6 M acetylcholine", "value": "8.925±2.4", "unit": "μN"}, {"measurement": "maximum force generated (FIG. 5 panel A)", "setting": "bioengineered IAS rings; adult rat rings, n=3", "value": "10.4±1.27"}, {"measurement": "force generated", "setting": "bioengineered IAS rings; old rat IAS rings, 10^−6 M acetylcholine", "value": "5.55±1.1", "unit": "μN"}, {"measurement": "maximum force generated (FIG. 5 panel A)", "setting": "bioengineered IAS rings; old rat rings, n=4", "value": "5.5±1.09"}, {"measurement": "less force generated by old rings than adult rings", "setting": "bioengineered IAS rings; stimulated with acetylcholine", "value": "approximately 50%"}]}]}
